Test results taken from article PMC9090415, “Discovery of small molecule inhibitors of Plasmodium falciparum apicoplast DNA polymerase” (Journal of Enzyme Inhibition and Medicinal Chemistry, 2022).
pIC50: −log10 of the molar value.

Biological target: P. falciparum apicoplast DNA polymerase (Pf-apPOL) (Plasmodium falciparum, UniProt Q8ILY1)
Experiment: Fluorescence-based high-throughput DNA polymerase assay (molecular beacon), primary screen and dose-response
Type: biochemical
Settings: for DNA Pol: 90 min, 10 µM; for pIC50: supplemental file 2, sheet IC50 nontoxic compounds, Pf-apPOL
Method: The HT assay employs a molecular beacon, a stem-loop DNA template with a Cy3 dye and the Black Hole Quencher on the 3′ and 5′ ends of the DNA, respectively. Pf-apPOL concentration is based on a calculated absorptivity of ε280 = 56750 M^−1 cm^−1. Reactions were carried out at 25 °C, using Corning 3575 […] (well-volume, 20 µL). Assays testing for compound inhibition composed of reaction buffer (pH 7.9 in 50 mM potassium acetate, 20 mM Tris-acetate and 10 mM magnesium acetate), Pf-apPOL (20 nM), DNA substrate (20 nM), dNTPs (6 µM), and compound (10 µM in DMSO). The DNA and nucleotide substrates (dNTPs) were at concentrations of 20 nM and 6 µM, respectively, in the assay. Pf-apPOL was incubated in the reaction buffer with dNTPs and the compound of interest (10 µM, in the assay) at 25 °C for 10 min. The DNA substrate was then added and the reaction was allowed to proceed for 90 min at 25 °C.
Each assay plate contained 16 negative controls (no Pf-apPOL, DMSO present) and 16 positive controls (Pf-apPOL present, no DMSO). The fluorescence of each well was determined using a BioTek Synergy Neo fluorescence plate reader using excitation and emission wavelengths of 555 and 570 nm, respectively.
In the above, Min is the average of fluorescence emission of the negative controls (substrate only), Max the average fluorescence emission from the positive controls (enzyme + substrate), and Test the emission from the assays in the presence of compounds (enzyme + compound + substrates). […] […] The IC50 of each compound was determined using Equation (2): (2) IC50= Vmax/(1+ (I/IC50)^n)
In the above, n measures cooperativity, with n > 1 indicating synergistic binding of more than a single molecule of the compound.
To identify apPOL inhibitors we utilised our previously developed high-throughput DNA polymerase assay. The HT assay is based on a molecular beacon DNA template that forms a stem-loop with a Cy3 dye and the Black Hole Quencher on the 3′ and 5′ ends of the DNA, respectively. DNA polymerase activity extends an annealed primer through the stem region, displacing the fluorophore from the quencher, thereby increasing its fluorescence (Figure 1(A)). The assay accurately recapitulates the kinetic behaviour of apPOL, as measured through more conventional low-throughput gel-based assays. The Z′ factor for the assay described here was 0.9 across all plates (data not shown).
Figure 1. High-throughput screening. (A) The fluorescent-based DNA polymerase assay used to screen the compound libraries. The DNA template strand is a hairpin loop with a primer annealed to the loop. The 3’ end of the primer is 11 bases away from the 6 bp duplex. Strand displacement activity of the DNA polymerase separates the Cy3 dye from the Black hole quencher leading to an increase in fluorescent signal. (B) The high-throughput assay workflow. The DNA polymerase is incubated with […] compound for 10 min prior to addition of the hairpin substrate. The reaction is quenched at 3 different time points and the fluorescent signal is measured and % inhibition is determined using the provided equation.

P. falciparum apicoplast DNA polymerase (Pf-apPOL), sequence (Q8ILY1 entry or part of it): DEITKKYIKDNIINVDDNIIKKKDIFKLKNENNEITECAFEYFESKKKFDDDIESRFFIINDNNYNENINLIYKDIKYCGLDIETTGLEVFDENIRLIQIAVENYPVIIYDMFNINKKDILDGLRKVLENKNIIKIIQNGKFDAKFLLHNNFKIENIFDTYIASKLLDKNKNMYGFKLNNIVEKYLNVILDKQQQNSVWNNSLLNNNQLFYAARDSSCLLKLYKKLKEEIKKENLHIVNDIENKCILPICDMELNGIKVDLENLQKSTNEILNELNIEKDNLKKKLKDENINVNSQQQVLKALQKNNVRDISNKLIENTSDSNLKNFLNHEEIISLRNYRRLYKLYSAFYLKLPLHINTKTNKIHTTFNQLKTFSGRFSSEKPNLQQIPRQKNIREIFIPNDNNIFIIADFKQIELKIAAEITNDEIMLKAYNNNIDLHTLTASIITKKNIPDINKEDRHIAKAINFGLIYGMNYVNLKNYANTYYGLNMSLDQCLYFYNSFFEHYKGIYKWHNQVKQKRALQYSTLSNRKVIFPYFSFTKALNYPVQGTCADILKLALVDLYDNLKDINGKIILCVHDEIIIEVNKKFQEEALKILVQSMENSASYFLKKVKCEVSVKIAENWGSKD

SMILES: C=CC1=C(C)c2cc3[nH]c(cc4nc(cc5[nH]c(cc1n2)c(C)c5CCC(=O)O)C(CCC(=O)O)=C4C)c(C)c3C=C [Molecule 91, C=CC1=C(C)/C/2=C/c3[nH]c(c(c3C=C)C)/C=C/3\N=C(/C=c/4\[nH]/c(=C\C1=N2)/c(C)c4CCC(=O)O)C(=C3C)CCC(=O)O]
- DNA Pol ('DNA Pol' of the 186 hits list (screen value)): 102
- % inhibition Apo pol 10' (DRC-1, conc 2.5): 61.8295%
- % inhibition Apo pol 10' (DRC-1, conc 5): 90.2247%
- % inhibition Apo pol 10' (DRC-1, conc 10): 94.5739%
- % inhibition Apo pol 10' (DRC-1, conc 20): 93.6963%
- % inhibition Apo pol 10' (DRC-1, conc 40): 92.3128%
- % inhibition Apo pol 10' (DRC-1, conc 80): 90.9627%
- % inhibition Apol 90' (DRC-1, conc 2.5): 48.9007%
- % inhibition Apol 90' (DRC-1, conc 5): 79.3077%
- % inhibition Apol 90' (DRC-1, conc 10): 94.695%
- % inhibition Apol 90' (DRC-1, conc 20): 95.5429%
- % inhibition Apol 90' (DRC-1, conc 40): 94.7622%
- % inhibition Apol 90' (DRC-1, conc 80): 94.048%
- % inhibition apPOL 180' (DRC-1, conc 2.5): 35.65%
- % inhibition apPOL 180' (DRC-1, conc 5): 71.3476%
- % inhibition apPOL 180' (DRC-1, conc 10): 94.4178%
- % inhibition apPOL 180' (DRC-1, conc 20): 96.2534%
- % inhibition apPOL 180' (DRC-1, conc 40): 95.7686%
- % inhibition apPOL 180' (DRC-1, conc 80): 95.2166%
- % inhibition Apo pol 5' (DRC-2, conc 2.5): 48%
- % inhibition Apo pol 5' (DRC-2, conc 5): 50%
- % inhibition Apo pol 5' (DRC-2, conc 10): 53%
- % inhibition Apo pol 5' (DRC-2, conc 20): 49%
- % inhibition Apo pol 5' (DRC-2, conc 40): 49%
- % inhibition Apo pol 5' (DRC-2, conc 80): 48%
- % inhibition Apo pol 5' (DRC-2, concentration 2.5): 48%
- % inhibition Apo pol 5' (DRC-2, concentration 20): 49%
- % inhibition Apo pol 5' (DRC-2, concentration 40): 49%
- % inhibition Apo pol 5' (DRC-2, concentration 80): 48%
- % inhibition Apol 40' (DRC-2, conc 2.5): 44%
- % inhibition Apol 40' (DRC-2, conc 5): 57%
- % inhibition Apol 40' (DRC-2, conc 10): 70%
- % inhibition Apol 40' (DRC-2, conc 20): 70%
- % inhibition Apol 40' (DRC-2, conc 40): 69%
- % inhibition Apol 40' (DRC-2, conc 80): 69%
- % inhibition Apol 40' (DRC-2, concentration 10): 70%
- % inhibition Apol 40' (DRC-2, concentration 20): 70%
- % inhibition Apol 40' (DRC-2, concentration 40): 69%
- % inhibition Apol 40' (DRC-2, concentration 80): 69%
- % inhibition ApPOL 90' (DRC-2, conc 2.5): 40%
- % inhibition ApPOL 90' (DRC-2, conc 5): 56%
- % inhibition ApPOL 90' (DRC-2, conc 10): 74%
- % inhibition ApPOL 90' (DRC-2, conc 20): 76%
- % inhibition ApPOL 90' (DRC-2, conc 40): 75%
- % inhibition ApPOL 90' (DRC-2, conc 80): 75%
- % inhibition ApPOL 90' (DRC-2, concentration 20): 76%
- % inhibition ApPOL 90' (DRC-2, concentration 40): 75%
- % inhibition ApPOL 90' (DRC-2, concentration 80): 75%
- % inhibition apPOL 180' (DRC-2, conc 2.5): 25%
- % inhibition apPOL 180' (DRC-2, conc 5): 49%
- % inhibition apPOL 180' (DRC-2, conc 10): 76%
- % inhibition apPOL 180' (DRC-2, conc 20): 80%
- % inhibition apPOL 180' (DRC-2, conc 40): 80%
- % inhibition apPOL 180' (DRC-2, conc 80): 79%
- % inhibition apPOL 180' (DRC-2, concentration 5): 49%
- % inhibition apPOL 180' (DRC-2, concentration 10): 76%
- % inhibition apPOL 180' (DRC-2, concentration 20): 80%
- % inhibition apPOL 180' (DRC-2, concentration 40): 80%
- DNA Pol (primary screen value, "DNA Pol"): 102

SMILES: O=C(c1c[nH]c2ncccc12)N1CCCC1 [Molecule 63]
- pIC50: 4.67

SMILES: COCC(=O)Nc1c(-c2cccc(F)c2)nc2cc(C)ccn12 [Molecule 44, COCC(=O)Nc1c(nc2n1ccc(c2)C)c1cccc(c1)F]
- % inhibition Apo pol 10' (DRC-1, concentration 2.5): 6.785%
- % inhibition Apo pol 10' (DRC-1, concentration 5): 30.033%
- % inhibition Apo pol 10' (DRC-1, concentration 10): 50.0286%
- % inhibition Apo pol 10' (DRC-1, concentration 20): 55.8788%
- % inhibition Apo pol 10' (DRC-1, concentration 40): 80.2368%
- % inhibition Apo pol 10' (DRC-1, concentration 80): 83.5036%
- % inhibition Apol 90' (DRC-1, concentration 2.5): 1.502%
- % inhibition Apol 90' (DRC-1, concentration 5): 18.1602%
- % inhibition Apol 90' (DRC-1, concentration 10): 35.5455%
- % inhibition Apol 90' (DRC-1, concentration 20): 42.2252%
- % inhibition Apol 90' (DRC-1, concentration 40): 74.869%
- % inhibition Apol 90' (DRC-1, concentration 80): 86.4562%
- % inhibition apPOL 180' (DRC-1, concentration 2.5): -2.445%
- % inhibition apPOL 180' (DRC-1, concentration 5): 8.4449%
- % inhibition apPOL 180' (DRC-1, concentration 10): 23.452%
- % inhibition apPOL 180' (DRC-1, concentration 20): 30.1351%
- % inhibition apPOL 180' (DRC-1, concentration 40): 67.7953%
- % inhibition apPOL 180' (DRC-1, concentration 80): 86.4237%
- % inhibition Apo pol 5' (DRC-2, concentration 2.5): 10%
- % inhibition Apo pol 5' (DRC-2, concentration 5): 29%
- % inhibition Apo pol 5' (DRC-2, concentration 10): 41%
- % inhibition Apo pol 5' (DRC-2, concentration 20): 50%
- % inhibition Apo pol 5' (DRC-2, concentration 40): 52%
- % inhibition Apo pol 5' (DRC-2, concentration 80): 45%
- % inhibition Apol 40' (DRC-2, concentration 2.5): 9%
- % inhibition Apol 40' (DRC-2, concentration 5): 27%
- % inhibition Apol 40' (DRC-2, concentration 10): 40%
- % inhibition Apol 40' (DRC-2, concentration 20): 59%
- % inhibition Apol 40' (DRC-2, concentration 40): 69%
- % inhibition Apol 40' (DRC-2, concentration 80): 69%
- % inhibition ApPOL 90' (DRC-2, concentration 2.5): 8%
- % inhibition ApPOL 90' (DRC-2, concentration 5): 24%
- % inhibition ApPOL 90' (DRC-2, concentration 10): 38%
- % inhibition ApPOL 90' (DRC-2, concentration 20): 58%
- % inhibition ApPOL 90' (DRC-2, concentration 40): 73%
- % inhibition ApPOL 90' (DRC-2, concentration 80): 74%
- % inhibition apPOL 180' (DRC-2, concentration 2.5): 3.16%
- % inhibition apPOL 180' (DRC-2, concentration 5): 15%
- % inhibition apPOL 180' (DRC-2, concentration 10): 27%
- % inhibition apPOL 180' (DRC-2, concentration 20): 51%
- % inhibition apPOL 180' (DRC-2, concentration 40): 73%
- % inhibition apPOL 180' (DRC-2, concentration 80): 77%
- % inhibition Apol 40' (conc. 5, DRC-2): 27%
- % inhibition apPOL 180' (conc. 10, DRC-2): 27%
- % inhibition Apol 40' (conc. 40, DRC-2): 69%
- % inhibition ApPOL 90' (conc. 40, DRC-2): 73%
- % inhibition apPOL 180' (conc. 40, DRC-2): 73%
- % inhibition Apol 40' (conc. 80, DRC-2): 69%
- DNA Pol (primary screen value by plate and well): 43
- DNA Pol (primary screen value of the 186 hits, unit not given): 43

SMILES: Cc1ccc(C)c(CSc2nc(C3CCCCC3)c(C#N)c(=O)[nH]2)c1 [Molecule 6]
- pIC50: 5.19
